{"source": "patent US20120115778A1", "about": "“Methods of Suppressing Appetite by the Administration of Antagonists of the Serotonin HTR1a or HTR2b Receptors or Inhibitors of TPH2” (The Trustees of Columbia University in the City of New York, priority 2009, published 2012)", "key": {"[1]": {"test": "Mass spectrometric analysis of mice hypothalami after administration of the compound", "type": "in vivo", "protocol": "(§1) This decrease in food intake reached 77% of control values when using 20 mg/kg of the compound (FIG. 19 C). […] Thus LY426965 decreases appetite in WT mice by inhibiting serotonin signaling through the Htr1a receptor that is located in the hypothalamus."}, "[2]": {"test": "Acute dose response of LY426965 on food intake in WT mice", "type": "in vivo", "protocol": "as §1\n(§2) One or 3-month old C57B1/6J inbred female mice were used in these experiments. Two different experimental regimens were utilized to assess the effect of LY426965 on appetite in WT and ob/ob mice.\nAnimals were separated into individual cages one day prior to the experiment. Compound LY426965 was dissolved in water and fed orally (Gavage) according to the weight of the mouse at doses 1, 5, 10 and 20 mg/kg BW two hours prior to the commencement of the dark cycle. Control animals received the same volume of vehicle. Food intake was measured every 12 hours for 36 hours after giving one dose of the antagonist."}, "[3]": {"test": "Chronic treatment of ob/ob mice with LY426965", "type": "in vivo", "conditions": "20 mg/kg body weight daily for 4 weeks from 4 weeks of age", "protocol": "(§3) To determine whether LY426965 could decrease appetite in leptin-deficient ob/ob mice, we administered 4-week old ob/ob mice with a single dose of LY426965 (0.2 mg/20 g of body weight) and measured food intake 12, 24 and 36 h later. […] Experiments were conducted to determine whether LY426965 could rescue, at least in part, the obesity of ob/ob mice if administered chronically, once mice had already developed an obesity phenotype. 4-week old ob/ob mice were administered daily with 20 mg/kg body weight dose of LY426965 for 4 additional weeks.\nIn this experiment one-month old WT and ob/ob mice (housed individually in metabolic cages) were divided into different groups and injected with the LY426965 dissolved in water and diluted in saline (final concentration 0.9%) once a day, 2 hours prior to the commencement of the dark cycle, for 4 weeks. Body weight was recorded everyday and dose of the drug and vehicle adjusted accordingly. At the end of the experiment all mice were subjected to measurement of food intake every 12 hours over a period of 36 hours."}, "[4]": {"test": "Food intake in leptin-deficient ob/ob mice after a single dose of LY426965", "type": "in vivo", "conditions": "4-week old ob/ob mice, single dose 0.2 mg/20 g of body weight, 12, 24 and 36 h later", "protocol": "as §3, §2"}, "[5]": {"test": "Appetite in Htr1aPomc-/- mice treated with LY426965", "type": "in vivo", "protocol": "These two hypotheses were tested through the use of a small molecule that selectively antagonizes signaling through Htr1a receptor. Other Htr1a and 2b receptor antagonists for use in the present invention are discussed below.\nAnimals were housed under 12 h light/12 h dark conditions with ad libitum access to food and water, and were used after a minimum of 4 days of acclimatization to the housing conditions. Control, Htr1aPomc−/−, Htr2bPomc−/−, Htr1a; 2 bPomc−/−, CrebPomc−/− mice were separated into individual cages one day prior to the experiment. Food intake and energy expenditure was measured every 12 hours for 36 hours essentially as described previously (6, 17)."}, "[6]": {"molecular_target": "T1, Htr1a receptor (Homo sapiens, UniProt P08908)", "T1 sequence (P08908 1-422)": "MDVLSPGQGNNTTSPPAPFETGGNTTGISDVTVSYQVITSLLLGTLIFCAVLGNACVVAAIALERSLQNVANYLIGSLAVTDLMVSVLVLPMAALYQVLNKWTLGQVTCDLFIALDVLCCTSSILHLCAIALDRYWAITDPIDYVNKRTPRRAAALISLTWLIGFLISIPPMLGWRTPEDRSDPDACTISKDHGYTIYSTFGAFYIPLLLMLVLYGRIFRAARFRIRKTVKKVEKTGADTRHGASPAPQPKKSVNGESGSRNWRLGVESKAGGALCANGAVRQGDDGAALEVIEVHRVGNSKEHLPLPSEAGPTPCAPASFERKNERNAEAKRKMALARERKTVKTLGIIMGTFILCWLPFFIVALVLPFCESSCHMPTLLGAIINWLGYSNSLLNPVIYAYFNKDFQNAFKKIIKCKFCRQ", "conditions": "cited from earlier work"}}}
{"smiles": "COc1ccccc1N1CCN(CC[C@](C)(C(=O)C2CCCCC2)c2ccccc2)CC1", "note": "[LY426965]", "values": [{"measurement": "compound reaching the hypothalamus", "setting": "[1]", "result": "could reach the hypothalamus"}, {"measurement": "decrease in food intake", "setting": "[2]; 20 mg/kg, WT mice", "result": "77 % of control values"}, {"measurement": "appetite (dose response)", "setting": "[2]; 1 to 20 mg/kg of body weight fed to 12 week-old C57B16/J mice", "result": "dose-dependent decrease in appetite"}, {"measurement": "obesity phenotype", "setting": "[3]", "result": "significantly decreased the obesity phenotype"}, {"measurement": "food intake lower than in vehicle-treated mice", "setting": "[4]", "result": "20-25%"}, {"measurement": "appetite", "setting": "[5]", "result": "not decreased"}, {"measurement": "selectivity over other serotonin and non-serotonin receptor subtypes", "setting": "[6]", "result": "≥ 20", "unit": "fold"}, {"measurement": "Ki", "setting": "[6]; read-out: affinity for the Htr1a receptor (Ki)", "result": 4.66, "unit": "nM"}]}
